Results taken from patent US20240246905A1 (University of Leicester, priority 2021, published 2024).

Assays:
MRSA 252 [1] = assay: MIC, broth micro-dilution; format: cell-based, Staphylococcus aureus
In short: (§1)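 S. aureus cultures grown 18 h in TSB were used to inoculate twofold antibiotic series in TSB at 5×10^5 CFU/mL, per CLSI guidelines. Growth curves read by optical density at 12-min intervals for 18 h at 37 °C were fitted sigmoidally to calculate MIC.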

MSSA 476 [2] = assay: MIC, broth micro-dilution; format: cell-based, Staphylococcus aureus
In short: as §1

MRSA 252 [3] = assay: Disc diffusion (Kirby-Bauer), zone of inhibition; format: cell-based, Staphylococcus aureus; conditions: 500 μg/mL, '/' = no zone
In short: (§2)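 Zones of inhibition recorded after 24 h at 37 °C on Mueller-Hinton agar. Agar was inoculated with 1 in 200 diluted 18 h broth cultures, and discs carried 50 μL of antibiotic. Method follows CLSI 2017 disc diffusion.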

MSSA 476 [4] = assay: Disc diffusion (Kirby-Bauer), zone of inhibition; format: cell-based, Staphylococcus aureus; conditions: 500 μg/mL, '/' = no zone
In short: as §2

[5] = tested on: Staphylococcus aureus 15981; assay: Disc diffusion (Kirby-Bauer), zone of inhibition; format: cell-based; conditions: Staphylococcus aureus 15981; 500 μg/mL; '/' = no zone
In short: as §2

[6] = tested on: various Staphylococcus aureus strains; assay: Disc diffusion, Staphylococcus aureus strain study; format: cell-based; conditions: 500 μg/mL
In short: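 Kirby-Bauer disc diffusion on Mueller-Hinton agar spread with 1:200 dilution of overnight S. aureus cultures (TSB, 37 °C). Discs loaded with 50 μL of compound at 500 μg/mL; zone of inhibition recorded after 24 h at 37 °C.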

C. tropicalis ATCC 450 = assay: Anti-fungal MIC (CO-ADD); format: cell-based
In short: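 Absorbance read-out after 36 h static incubation at 35 °C gives percent growth inhibition, normalised to same-plate wells holding medium alone or fungi without inhibitor. Inocula of 1×10^6 to 5×10^6 CFU/mL, set by OD530, derive from five colonies of 3-day YPD agar cultures grown at 30 °C.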

HEK293 cells = assay: Cytotoxicity assay, resazurin (CO-ADD)
In short: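 HEK293 cells in DMEM with 10% FBS were exposed to compounds at a single concentration of 32 μg/mL for 20 h at 37° C, 5% CO2. Viability read by resazurin fluorescence (2.3 μg/mL final, 3 h; F560/590). CC50 from sigmoidal dose-response fitting.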

red blood cells = assay: Hemolysis assay (CO-ADD); format: cell-based; conditions: 32 μg/mL highest concentration tested
Text: A problem often encountered by emerging drugs is hemolysis, also known as drug-induced immune hemolytic anemia.

(2-Isocyanovinyl)-4-acetaamido benzene [Compound 22]
MIC (MRSA 252 [1]): 55 µg/mL | MIC (MSSA 476 [2]): 172 µg/mL | Zone of inhibition (MRSA 252 [3]): 20 mm | Zone of inhibition (MSSA 476 [4]): 16 mm | Zone of inhibition [5]: 18 mm | Zone of inhibition ([6]; strain ASARM 61): 18 mm | Zone of inhibition ([6]; strain ASARM 70): 18 mm | Zone of inhibition ([6]; strain ASARM 71): 20 mm | Zone of inhibition ([6]; strain ASARM 72): 22 mm | Zone of inhibition ([6]; strain ASARM 73): 20 mm | Zone of inhibition ([6]; strain ASARM 75): 22 mm | Zone of inhibition ([6]; strain ASARM 76): 26 mm | Zone of inhibition ([6]; strain ASARM 77): 24 mm | Zone of inhibition ([6]; strain ASARM 79): 22 mm | Zone of inhibition ([6]; strain ASARM 80): 26 mm | Zone of inhibition ([6]; strain EOE 3): 20 mm | Zone of inhibition ([6]; strain EOE 23): 22 mm | Zone of inhibition ([6]; strain EOE 30): 20 mm | Zone of inhibition ([6]; strain EOE 35): 18 mm | Zone of inhibition ([6]; strain EOE 41): 20 mm | Zone of inhibition ([6]; strain EOE 42): 22 mm | Zone of inhibition ([6]; strain EOE 45): 26 mm | Zone of inhibition ([6]; strain EOE 52): 22 mm | Zone of inhibition ([6]; strain EOE 54): 16 mm | Zone of inhibition ([6]; strain EOE 57): 18 mm | Zone of inhibition ([6]; strain MRSA 252): 20 mm | Zone of inhibition ([6]; strain S139_7_7): 16 mm | Zone of inhibition ([6]; strain S197_1_1): 22 mm | Zone of inhibition ([6]; strain S197_1_8): 24 mm | Zone of inhibition ([6]; strain S197_1_9): 26 mm | Zone of inhibition ([6]; strain S197_1_10): 22 mm | Zone of inhibition ([6]; strain S295_1_1): 20 mm | Zone of inhibition ([6]; strain S295_1_2): 20 mm | Zone of inhibition ([6]; strain S295_1_3): 20 mm | Zone of inhibition ([6]; strain S364_5_11): 22 mm | Zone of inhibition ([6]; strain S364_5_12): 20 mm | Zone of inhibition ([6]; strain Sa_TPS 3026): 20 mm | Zone of inhibition ([6]; strain Sa_TPS 3072): 22 mm | Zone of inhibition ([6]; strain Sa_TPS 3092): 24 mm | Zone of inhibition ([6]; strain Sa_TPS 3097): 24 mm | Zone of inhibition ([6]; strain Sa_TPS 3103): 22 mm | Zone of inhibition ([6]; strain Sa_TPS 3104): 20 mm | Zone of inhibition ([6]; strain Sa_TPS 3106): 26 mm | Zone of inhibition ([6]; strain Sa_TPS 3118): 18 mm | Zone of inhibition ([6]; strain Sa_TPS 3133): 18 mm | Zone of inhibition ([6]; strain Sa_TPS 3134): 18 mm | Zone of inhibition ([6]; strain USFL 008): 14 mm | Zone of inhibition ([6]; strain USFL 009): 14 mm | Zone of inhibition ([6]; strain USFL 012): 16 mm | Zone of inhibition ([6]; strain USFL 016): 18 mm | Zone of inhibition ([6]; strain USFL 018): 18 mm | Zone of inhibition ([6]; strain USFL 020): 16 mm | Zone of inhibition ([6]; strain USFL 021): 16 mm | Zone of inhibition ([6]; strain USFL 028): 15 mm | Zone of inhibition ([6]; strain USFL 035): 16 mm | Zone of inhibition ([6]; strain USFL 054): 19 mm | Zone of inhibition ([6]; strain not given): 18 mm | MIC (C. tropicalis ATCC 450): >32 µg/mL | Concentration toxic to HEK 293 cells (HEK293 cells; HEK 293): >32000 ng/mL | toxicity towards the HEK293 cell line (in words) (HEK293 cells; set concentration of 32 μg/mL): no toxicity | Hemolytic activity (HC10) (red blood cells): >32 µg/mL
